Data: patent US4777167A, “Pharmaceutically useful substituted thiacycloalkeno [3,2-b]pyridines, compositions and method of use” (Ortho Pharmaceutical Corporation, priority 1987, dated 1988)

What was measured:
[1] = test system: trachealis muscle; experiment: Inhibition of calcium dependent smooth muscle contraction (KCl-challenged trachea); type: cell-based, dog; settings: Canis lupus familiaris, Table II; for inhibition at 1 µM: concentration 1.0 μM; for inhibition at 0.1 µM: concentration 0.1 μM; for inhibition at 0.1 µM / inhibition at 2 µM / inhibition at 0.2 µM: read-out: Inhibition Trachea Muscle Contraction % Inhibition; for inhibition at 2 µM: concentration 2.0 μM; for inhibition at 0.2 µM: concentration 0.2 μM
Protocol: The test for inhibition of calcium dependent smooth muscle contraction is determined according to the following procedure:
Trachea from dogs sacrificed by excess KCl injection are stored overnight at 4° C. in oxygenated Krebs-Henseleit buffer. Tracheal rings, one cartilage segment wide (5-10 mm), are cut starting from the bronchial end. After cutting the cartilage, the trachealis muscle tissue is suspended in oxygenated Krebs-Henseleit buffer at 37° C. in a 25 ml tissue bath. After a 60 minutes equilibration period, the tissues are challenged with 10 μM carbachol. After 5 minutes the tissues are rinsed and allowed to rest 50 minutes. The tissues are then challenged with 50 mM KCl and, after 30 minutes, the contractions are quantitated. The tissues are then rinsed and reequilibrated for 50 minutes. Test compounds are then added for 10 minutes, and the tissue is rechallenged with 50 mMKcl. After 30 minutes, the contraction is recorded and used to determine the % inhibition of control.
The percent inhibition of smooth muscle contraction is calculated from response data before and after drug treatment. [formula] A rating is assigned to the compound depending upon the percent inhibition obtained.

[2] = test system: Aorta Muscle; experiment: Inhibition of aorta muscle contraction; type: cell-based; settings: Table II; for inhibition at 0.1 µM: concentration 0.1 μM
[3] = target: T1, calcium channels (Oryctolagus cuniculus, UniProt P15381); experiment: Inhibition of nitrendipine binding (3H-nitrendipine displacement, rabbit heart membranes); parameters: species or system rabbit (New Zealand white); settings: Table II, 90 min, 4° C.
T1 construct: from tissue; host or cells: heart of female New Zealand white rabbits, membrane fraction (42,000×g pellet)
T1 sequence (P15381 whole entry, other chains not shown): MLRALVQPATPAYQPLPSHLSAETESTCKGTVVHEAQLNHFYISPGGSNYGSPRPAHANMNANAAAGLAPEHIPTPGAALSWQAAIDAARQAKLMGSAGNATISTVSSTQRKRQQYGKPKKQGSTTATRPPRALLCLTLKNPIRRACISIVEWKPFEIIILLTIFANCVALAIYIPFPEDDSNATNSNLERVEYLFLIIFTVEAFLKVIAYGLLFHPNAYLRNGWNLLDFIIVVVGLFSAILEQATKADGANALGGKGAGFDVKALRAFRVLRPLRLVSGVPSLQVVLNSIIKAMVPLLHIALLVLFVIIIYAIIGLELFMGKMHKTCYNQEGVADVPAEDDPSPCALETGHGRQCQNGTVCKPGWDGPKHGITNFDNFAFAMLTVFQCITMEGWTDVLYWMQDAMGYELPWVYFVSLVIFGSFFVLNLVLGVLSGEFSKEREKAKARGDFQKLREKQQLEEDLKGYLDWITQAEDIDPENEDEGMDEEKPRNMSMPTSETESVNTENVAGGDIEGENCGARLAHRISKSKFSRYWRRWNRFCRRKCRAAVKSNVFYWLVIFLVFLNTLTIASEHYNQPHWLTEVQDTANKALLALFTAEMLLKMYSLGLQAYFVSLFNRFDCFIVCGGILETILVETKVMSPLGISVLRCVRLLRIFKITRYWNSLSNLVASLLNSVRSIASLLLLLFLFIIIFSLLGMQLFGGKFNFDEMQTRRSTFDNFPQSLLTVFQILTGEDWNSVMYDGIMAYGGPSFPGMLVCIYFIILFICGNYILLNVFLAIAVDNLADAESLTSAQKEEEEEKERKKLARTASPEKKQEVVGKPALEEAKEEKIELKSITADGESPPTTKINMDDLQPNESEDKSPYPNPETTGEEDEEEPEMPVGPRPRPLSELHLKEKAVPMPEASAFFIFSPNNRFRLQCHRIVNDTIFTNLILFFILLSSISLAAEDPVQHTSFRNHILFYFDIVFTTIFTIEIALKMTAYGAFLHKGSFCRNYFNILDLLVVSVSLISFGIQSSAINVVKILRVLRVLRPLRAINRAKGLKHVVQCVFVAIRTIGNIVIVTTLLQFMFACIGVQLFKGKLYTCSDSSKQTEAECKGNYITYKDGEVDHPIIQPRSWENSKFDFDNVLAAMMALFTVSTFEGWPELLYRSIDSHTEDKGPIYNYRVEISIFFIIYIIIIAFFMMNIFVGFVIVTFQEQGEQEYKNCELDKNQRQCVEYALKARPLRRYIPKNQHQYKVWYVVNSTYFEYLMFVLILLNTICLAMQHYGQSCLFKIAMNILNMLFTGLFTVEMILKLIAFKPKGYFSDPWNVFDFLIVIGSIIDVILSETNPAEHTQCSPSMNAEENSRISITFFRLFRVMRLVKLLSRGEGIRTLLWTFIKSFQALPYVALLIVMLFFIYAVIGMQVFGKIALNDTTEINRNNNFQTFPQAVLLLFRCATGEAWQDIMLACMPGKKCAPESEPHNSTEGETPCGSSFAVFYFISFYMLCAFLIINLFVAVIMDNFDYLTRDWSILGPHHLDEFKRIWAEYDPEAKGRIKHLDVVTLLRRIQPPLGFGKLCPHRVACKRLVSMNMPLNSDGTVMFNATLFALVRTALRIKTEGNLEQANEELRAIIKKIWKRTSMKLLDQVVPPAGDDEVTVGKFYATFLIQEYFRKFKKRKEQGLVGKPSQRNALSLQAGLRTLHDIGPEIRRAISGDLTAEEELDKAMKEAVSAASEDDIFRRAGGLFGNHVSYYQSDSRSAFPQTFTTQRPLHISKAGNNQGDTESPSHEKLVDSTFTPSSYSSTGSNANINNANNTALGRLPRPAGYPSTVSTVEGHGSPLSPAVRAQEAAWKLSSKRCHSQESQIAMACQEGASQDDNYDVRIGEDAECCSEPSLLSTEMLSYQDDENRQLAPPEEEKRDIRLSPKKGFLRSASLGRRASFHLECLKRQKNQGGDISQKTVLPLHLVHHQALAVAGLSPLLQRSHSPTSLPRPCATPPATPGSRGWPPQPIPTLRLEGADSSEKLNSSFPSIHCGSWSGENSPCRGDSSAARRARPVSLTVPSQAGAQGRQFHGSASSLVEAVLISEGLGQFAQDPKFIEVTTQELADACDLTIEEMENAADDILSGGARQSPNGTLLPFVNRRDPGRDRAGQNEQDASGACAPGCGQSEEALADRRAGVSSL
T1 sequence (P13806 27-960 partner limits assumed, other chains not shown): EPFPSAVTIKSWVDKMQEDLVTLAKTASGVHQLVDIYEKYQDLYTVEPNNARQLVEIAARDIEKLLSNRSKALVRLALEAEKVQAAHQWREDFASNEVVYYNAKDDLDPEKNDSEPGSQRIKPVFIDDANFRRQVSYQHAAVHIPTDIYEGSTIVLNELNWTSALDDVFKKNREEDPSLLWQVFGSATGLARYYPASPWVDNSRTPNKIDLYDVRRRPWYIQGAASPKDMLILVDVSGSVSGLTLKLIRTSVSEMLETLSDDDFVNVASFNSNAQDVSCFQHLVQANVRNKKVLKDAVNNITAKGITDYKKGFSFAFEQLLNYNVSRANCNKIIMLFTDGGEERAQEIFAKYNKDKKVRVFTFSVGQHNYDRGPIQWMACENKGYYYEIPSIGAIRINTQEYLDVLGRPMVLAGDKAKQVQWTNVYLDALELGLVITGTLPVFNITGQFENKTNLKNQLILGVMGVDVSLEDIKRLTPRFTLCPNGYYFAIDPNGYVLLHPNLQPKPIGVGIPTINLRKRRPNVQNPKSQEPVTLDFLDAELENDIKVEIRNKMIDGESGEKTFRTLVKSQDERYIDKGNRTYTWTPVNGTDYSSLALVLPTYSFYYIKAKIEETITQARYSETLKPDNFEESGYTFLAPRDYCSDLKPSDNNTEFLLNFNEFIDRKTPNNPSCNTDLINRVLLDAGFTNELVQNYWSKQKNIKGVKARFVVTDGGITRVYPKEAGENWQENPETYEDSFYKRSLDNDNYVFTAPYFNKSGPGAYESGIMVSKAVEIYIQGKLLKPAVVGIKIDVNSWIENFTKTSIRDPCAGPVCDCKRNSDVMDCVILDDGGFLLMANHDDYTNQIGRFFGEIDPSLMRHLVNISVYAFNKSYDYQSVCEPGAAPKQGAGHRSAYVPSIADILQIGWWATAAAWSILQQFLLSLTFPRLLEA
T1 sequence (P13806 961-1106 partner limits assumed, other chains not shown): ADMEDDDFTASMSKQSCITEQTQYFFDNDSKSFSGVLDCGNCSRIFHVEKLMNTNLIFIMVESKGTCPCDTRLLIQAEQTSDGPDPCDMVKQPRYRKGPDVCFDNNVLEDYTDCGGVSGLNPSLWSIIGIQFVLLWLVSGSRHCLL
Protocol: (1) Inhibition of nitrendipine binding to calcium channels.
The assay for inhibition of nitrendipine binding follows the following procedure:
Female, New Zealand white rabbits (1-2 kg) are sacrificed by cervical dislocation, and the heart is immediately removed, cleaned, and chopped into small pieces. The tissue is homogenized in 5× volume of 0.05M Hepes buffer, pH 7.4. The homogenate is centrifuged at 4000×g for 10 minutes; the supernatant is recentrifuged at 42,000×g for 90 minutes. The resulting membrane pellet is resuspended (0.7 ml/g weight) in 0.05M Hepes, pH 7.4 and stored at -70° C. until used. Each tube of the binding assay contains ^3 H- nitrendipine (0.05-0.50 nM), buffer, membranes (0.10 ml), and test compound in a total volume of 1.0 ml. After 90 minutes at 4° C., the bound nitrendipine is separated from the unbound by filtration on Whatman GF/C fibers. After rinsing, the filters are dried and counted in a liquid scintillation counter.
Non-specific binding of ^3 H-nitrendipine (that amount bound in the presence of excess unlabelled nitrendipine) is subtracted from the total bound to obtain specifically bound radiolabeled nitrendipine. The amount of specifically bound nitrendipine in the presence of a test compound is compared to that amount bound in the absence of a compound. A percent displacement (or inhibition) can then be obtained.

Row | SMILES | IC50 [3] | inhibition at 1 µM [1] | inhibition at 0.1 µM [2] | inhibition at 0.1 µM [1] | inhibition at 2 µM [1] | inhibition at 3 µM ([2]; concentration 3.0 μM) | inhibition at 0.01 µM ([2]; concentration 0.01 μM) | inhibition at 0.2 µM [1]
1 | CC1=C(C(=O)OCCCN(C)Cc2ccccc2)C(c2ccccc2[N+](=O)[O-])C2=C(CCCCS2(=O)=O)N1 (stereo not drawn) [4 2-NO2C6 H4 CH2 CH2 CH2 NCH3 CH2 C6 H5] | 1000 nM | 41% | 7.7% | – | – | – | – | –
2 | CC1=C(C(=O)OCCN2CCc3ccccc32)C(c2cccc([N+](=O)[O-])c2)C2=C(CCCCS2(=O)=O)N1 (stereo not drawn) [4 3-NO2C6 H4 drawing 9] | 100 nM | 56% | 80% | – | – | – | – | –
3 | CC1=C(C(=O)OCCN(C)Cc2ccccc2)C(c2c(F)c(F)c(F)c(F)c2F)C2=C(CCCCCS2(=O)=O)N1 (stereo not drawn) [5 C6 F5, N-Benzyl-N-methylaminoethyl 10-(2,3,4,5,6-pentafluorophenyl)-3,4,5,6,7,10-hexahydro-8-methyl-1,1-dioxo-2H-thiacycloocteno[3,2-b]pyridine-9-carboxylate] | 87 nM | – | 70% | 50% | – | – | – | –
4 | CC1=C(C(=O)OCCN(C)c2ccccc2)C(c2ccccc2[N+](=O)[O-])C2=C(CCCCS2(=O)=O)N1 (stereo not drawn) [4 2-NO2C6 H4 CH2 CH2 NCH3 C6 H5] | 86 nM | – | 43% | 57% | – | – | – | –
5 | CC1=C(C(=O)OCCN(C)Cc2ccccc2)C(c2ccccc2[N+](=O)[O-])C2=C(CCCCS2(=O)=O)N1 (stereo not drawn) [4 2-NO2C6 H4] | 440 nM | – | 44% | 49% | – | – | – | –
6 | CC1=C(C(=O)OCCc2ccccn2)C(c2cccc([N+](=O)[O-])c2)C2=C(CCCCCS2(=O)=O)N1 (stereo not drawn) [5 3-NO2C6 H4 drawing 10] | 65 nM | – | 48% | 53% | – | – | – | –
7 | CC1=C(C(=O)OCCN(C)c2ccccc2)C(c2c(F)c(F)c(F)c(F)c2F)C2=C(CCCCCS2(=O)=O)N1 (stereo not drawn) [5 C6 F5 CH2 CH2 NCH3 C6 H5, N-Methyl-N-phenylaminoethyl 10-(2,3,4,5,6-pentafluorophenyl)-3,4,5,6,7,10-hexahydro-8-methyl-1,1-dioxothiacycloocteno[3,2-b]pyridine-9-carboxylate] | 18 nM | – | 63% | 47% | – | – | – | –
8 | CC1=C(C(=O)OCCO)C(c2cccc([N+](=O)[O-])c2)C2=C(CCCCS2(=O)=O)N1 (stereo not drawn) [4 3-NO2C6 H4 CH2 CH2 OH] | 2400 nM | – | – | – | 23% | 41% | – | –
9 | CC1=C(C(=O)OCCN(C)c2ccccc2)C(c2ccccc2C(F)(F)F)C2=C(CCCCS2(=O)=O)N1 (stereo not drawn) [4 2-CF3C6 H4 CH2 CH2 NCH3 C6 H5] | 46 nM | – | 57% | 59% | – | – | – | –
10 | CC1=C(C(=O)OCCN(C)Cc2ccccc2)C(c2cccc(C(F)(F)F)c2Cl)C2=C(CCCCCCS2(=O)=O)N1 (stereo not drawn) [6 2-Cl,3-CF3C6 H3, N-Benzyl-N-methylaminoethyl 19-(2-chloro-3-trifluoromethylphenyl)-2,3,4,5,6,7,8,11-octahydro-9-methyl-1,1-dioxothiacyclononeno[3,2-b]pyridine-10-carboxylate] | 470 nM | – | 30% | – | 46% | – | – | –
11 | CC1=C(C(=O)OCCNc2ccccc2)C(c2cccc([N+](=O)[O-])c2)C2=C(CCCCS2(=O)=O)N1 (stereo not drawn) [4 3-NO2C6 H4 CH2 CH2 NHC6 H5] | 16 nM | 72% | 48% | – | – | – | – | –
12 | CC1=C(C(=O)OCCCN(C)Cc2ccccc2)C(c2cccc([N+](=O)[O-])c2)C2=C(CCCCS2(=O)=O)N1 (stereo not drawn) [4 3-NO2 C6 H4 CH2 CH2 CH2 NCH3 CH2 C6 H5] | 290 nM | – | 25% | – | 50% | – | – | –
13 | CC1=C(C(=O)OC2CCN(Cc3ccccc3)CC2)C(c2cccc([N+](=O)[O-])c2)C2=C(CCCCS2(=O)=O)N1 (stereo not drawn) [4 3-NO2C6 H4 drawing 7] | 860 nM | – | 12% | – | 17% | – | – | –
14 | CC1=C(C(=O)OCCN(C)Cc2ccccc2)C(c2cccc([N+](=O)[O-])c2)C2=C(CCCCCS2(=O)=O)N1 (stereo not drawn) [5 3-NO2C6 H4, N-Benzyl-N-methylaminoethyl 3,4,5,6,7,10-hexahydro-8-methyl-10-(3-nitrophenyl)-1,1-dioxo-2H-thiacycloocteno[3,2-b]pyridine-9-carboxylate] | 45 nM | – | 67% | 43% | – | – | – | –
15 | CC1=C(C(=O)OCCN(C)CCc2ccccc2)C(c2cccc(Cl)c2Cl)C2=C(CCCCCS2(=O)=O)N1 (stereo not drawn) | 149 nM | 57% | 67% | – | – | – | – | –
16 | CC1=C(C(=O)OCCN(C)c2ccccc2)C(c2cccc([N+](=O)[O-])c2)C2=C(CCCCS2(=O)=O)N1 (stereo not drawn) [4 3-NO2C6 H4 CH2 CH2 NCH3 C6 H5] | 45 nM | 65% | 53% | – | – | – | – | –
17 | CC1=C(C(=O)OCCN2CCc3ccccc3C2)C(c2cccc([N+](=O)[O-])c2)C2=C(CCCCS2(=O)=O)N1 (stereo not drawn) [4 3-NO2C6 H4 drawing 11] | 200 nM | – | 53% | – | – | – | – | 45%

Second part, led by results:

Row | IC50 [3] | SMILES | inhibition at 1 µM [1] | inhibition at 0.1 µM [2] | inhibition at 0.1 µM [1] | inhibition at 2 µM [1] | inhibition at 3 µM ([2]; concentration 3.0 μM) | inhibition at 0.01 µM ([2]; concentration 0.01 μM) | inhibition at 0.2 µM [1]
18 | 75 nM | CC1=C(C(=O)OCCN(C)Cc2ccccc2)C(c2cccc(Cl)c2Cl)C2=C(CCCCCS2(=O)=O)N1 (stereo not drawn) [5 2,3-Cl2C6 H3] | – | 58% | 26% | – | – | – | –
19 | 29 nM | CC1=C(C(=O)OCCN(C)Cc2ccccc2)C(c2c(F)cccc2Cl)C2=C(CCCCS2(=O)=O)N1 (stereo not drawn) [4 2-Cl,6-FC6 H3, N-Benzyl-N-methylaminoethyl 9-(2-chloro-6-fluorophenyl)-2,4,5,6,9-hexahydro-7-methyl-1,1-dioxothiacyclohepteno[3,2-b]pyridine-8-carboxylate] | – | 66% | 50% | – | – | – | –
20 | 95 nM | CC1=C(C(=O)OCCN(C)Cc2ccccc2)C(c2ccccc2OC(F)F)C2=C(CCCCCS2(=O)=O)N1 (stereo not drawn) [5 2-OCHF2C6 H4, N-Benzyl-N-methylaminoethyl 10-(2-difluoromethoxyphenyl)-3,4,5,6,7,10-hexahydro-8-methyl-1,1-dioxothiacycloocteno[3,2-b]pyridine-9-carboxylate] | – | – | 76% | – | – | 80% | –
21 | 120 nM | CC1=C(C(=O)OCCN(C)Cc2ccccc2)C(c2cc(F)ccc2F)C2=C(CCCCS2(=O)=O)N1 (stereo not drawn) [4 2,5-F2C6 H3] | – | 47% | 43% | – | – | – | –
22 | 440 nM | CC1=C(C(=O)OCCN(C)Cc2ccccc2)C(c2ccccc2F)C2=C(CCCCS2(=O)=O)N1 (stereo not drawn) [4 2-FC6 H4] | – | 32% | – | 84% | – | – | –
23 | 260 nM | CC1=C(C(=O)OCCN(C)Cc2ccccc2)C(c2cc([N+](=O)[O-])ccc2Cl)C2=C(CCCCS2(=O)=O)N1 (stereo not drawn) [4 2-Cl,5-NO2C6 H3] | – | 63% | 38% | – | – | – | –
24 | 220 nM | CC1=C(C(=O)OCCN(C)Cc2ccccc2)C(c2ccccc2Cl)C2=C(CCCCS2(=O)=O)N1 (stereo not drawn) [4 2-ClC6 H4, N-Benzyl-N-methylaminoethyl 9-(2-chlorophenyl)-2,4,5,6,9-hexahydro-7-methyl-1,1-dioxothiacyclohepteno[3,2-b]pyridine-8-carboxylate] | – | 54% | 57% | – | – | – | –
25 | 86 nM | CC1=C(C(=O)OCCN(C)Cc2ccccc2)C(c2c(Cl)cccc2Cl)C2=C(CCCCS2(=O)=O)N1 (stereo not drawn) [4 2,6-Cl2C6 H3] | – | 50% | 55% | – | – | – | –
26 | 2800 nM | CC1=C(C(=O)OCCN(C)Cc2ccccc2)C(c2cccc(C(F)(F)F)c2)C2=C(CCCCS2(=O)=O)N1 (stereo not drawn) [4 3-CF3C6 H4] | – | 44% | – | – | – | – | 37%
27 | 390 nM | CC1=C(C(=O)OCCN(C)Cc2ccccc2)C(c2cccc(C(F)(F)F)c2Cl)C2=C(CCCCS2(=O)=O)N1 (stereo not drawn) [4 2-Cl,3-CF3C6 H3] | – | 66% | – | – | – | – | 50%
28 | 160 nM | CC1=C(C(=O)OCCN(C)Cc2ccccc2)C(c2ccccc2C(F)(F)F)C2=C(CCCCS2(=O)=O)N1 (stereo not drawn) [4 2-CF3C6 H4, N-Benzyl-N-methylaminoethyl 2,4,5,6,9-hexahydro-7-methyl-9-(2-trifluoromethylphenyl)-1,1-dioxothiacyclohepteno[3,2-b]pyridine-8-carboxylate] | – | 85% | 64% | – | – | – | –
